Earlier results in patent US20230405076A1, “COMPOSITION COMPRISING AKKERMANSIA MUCINIPHILA AND GREEN TEA EXTRACT” (A-MANSIA BIOTECH, priority 2020, published 2023).

How the values were obtained:
[1] = via EGCG promoted increase of Akkermansia muciniphila, Sheng 2018
[2] = test system: Akkermansia genus in the Verrucomicrobia; settings: high fat diet mice, Ushiroda 2019

In the case of Epigallocatechin-3-gallate, the “diet-increased obesity, visceral fat, and insulin resistance” value [1] is given as “effectively reduces” and the “abundance of the Akkermansia genus” value [2] is given as “increase”.
